The record followed here is patent publication US9598459B2, “Pharmaceutical compositions and methods” (priority 2015, dated 2017).

Data set [1] in a line: in vitro. The settings on record: African green monkey, CC50.
Data set [2] is described as follows: Cytotoxicity control on HepG2 (CellTiter MTS). The settings on record: human, HepG2 cells.
Data set [3] in a line: in vitro. The settings on record: human.
Another data set in a line: Cytotoxicity on CCRF-CEM. The settings on record: human, CCRF-CEM cells, CC50, Cytotoxicity control, CCRF-CEM, CellTiter MTS.

For the compound `C[C@@H]1C[C@@H]([C@H](O)CC2CC(=O)NC(=O)C2)C(=O)[C@@H](C)C1` [Cycloheximide], the CC50 came to 0.2 µM in the data set “in vitro [1]”, 0.6 µM in data set [2], 0.5 µM in the data set “in vitro [3]” and 0.1 µM in the data set “Cytotoxicity on CCRF-CEM”.
